Patent US20250154238A1, “METHODS AND COMPOSITIONS FOR TREATING AND PREVENTING FIBROSIS” (YALE UNIVERSITY, priority 2022, published 2025)

Columns and labels:
[1] = data from European Medicines Agency; read-out: KD (×10^−12); cited from earlier work
[2] = data from European Medicines Agency; tocilizumab from reference 80; cited from earlier work
[3] = tested on: lung explants from a patient with IPF; experiment: IPF patient lung explant culture, gene expression and secreted proteins; type: cell-based, human; conditions: 10 days; nintedanib 0.1 μM, Alk5i 10 μM, Ereg Ab 2.5 μg/ml
Protocol: FIGS. 13A-13I show epiregulin inhibition reduces mouse and human lung fibrosis. (FIGS. 13A-13E) As diagramed in (FIG. 13A), 10 days after intratracheal bleomycin mice began treatment with epiregulin antibody for two weeks prior to euthanasia. Lungs were analyzed for histology (FIG. 13B), modified Ashcroft score (FIG. 13C), hydroxyproline (FIG. 13D) and epiregulin gene expression (FIG. 13E), n=6 (PBS), 11 (BLM), and 7 (Ereg Ab). Histology images in (FIG. 13B) are 10× magnification with 200 μm scale bars and IHC images are 40× magnification with 40 μm scale bars. […] The same tissue was cut into cubes and cultured for 10 days in the presence of the multikinase inhibitor nintedanib 0.1 μM (Nin), the Alk5 inhibitor A-1544033 (IN-1130) 10 μM (Alk5i), epiregulin antibody 2.5 μg/ml (Ereg Ab) or non-treated vehicle control (NT). (FIGS. 13G-13I) Relative expression of indicated genes, n=4 per group. (FIG. 13I) Protein secretion of indicated genes measured by ELISA, n=8 per group. ELISA samples with poor signal and qPCR outliers identified by Grubbs's test with alpha-0.05 were excluded. Data are means±SD (ns, not significant. * P<0.05, ** P<0.01, **** P<0.0001) analyzed with one-way analysis of variance (ANOVA) with Tukey multiple-comparisons test (FIGS. 13C-13E) and Dunnett's multiple-comparisons test (FIGS. 13G-13I).
Pathologic assessment confirmed the diagnosis of early IPF, as evidenced by the presence of fibroblastic foci and hyperplasia of alveolar type II epithelial cells as shown in FIG. 13F. Lung tissue was plated in 24 well plates and cultured for 10 days with media changes every two days. The impact of epiregulin antibody compared to the multikinase inhibitor nintedanib and a transforming growth factor beta type I receptor TGF-βRI/Alk5 small molecule inhibitor was assessed by measuring disease relevant endpoints in gene expression and protein production. At the gene level, reduction in epiregulin expression was observed which was similar to that seen in mouse lung by both epiregulin and TGF-βRI inhibition (FIG. 13G, left panel). […] ECM-remodeling and inflammation. […]
For lung explants, human IPF lung (person) was obtained from the National Disease Research Interchange (NDRI), kept cold, and received <24 hours after cross-clamp. […] After 10 days, culture supernatants were collected, pre-cleared at 4000× g (4° C. 10 mins), transferred to a clean 96 well polypropylene plate and stored at −80° C., until protein endpoints measured. Measured secreted proteins include: human MCP-1 V-Plex (MesoScale Discovery, K151NND-1), human TIMP-1 (MesoScale Discovery, K151JFC-1) and human pro-collagen 1α1 DuoSet Elisa (R&D systems, DY6220-05). All proteins were assayed and analyzed in accordance with their respective assay product datasheets. […]

Molecule	Kd [1] [pM]	IC50 [2] [pM]	COL1A1 gene expression, IPF lung explant [3]	epiregulin gene expression, IPF lung explant [3]	pro-COL1A1 protein level, IPF lung explant [3]
Tocilizumab: FDA-approved monoclonal antibody medication	2500	90	–	–	–
Cc1cccc(-c2[nH]c(Cc3cccc(C(N)=O)c3)nc2-c2ccc3nccnc3c2)n1 [TGF-βRI/Alk5 small molecule inhibitor]	–	–	significantly reduced expression	reduction	significant reduction
Rizankizumab: FDA-approved monoclonal antibody medication	29	24	–	–	–
COC(=O)c1ccc2c(c1)NC(=O)/C2=C(\Nc1ccc(N(C)C(=O)CN2CCN(C)CC2)cc1)c1ccccc1 [nintedanib]	–	–	–	–	significant reduction
Adalimumab	58 to 87	100 to 1000	–	–	–
